Laboratory results from patent publication US11180504B2 (ORCHID PHARMA LTD., priority 2016, dated 2021).
In brackets after ≈: the same amount, converted by molar mass.

What was measured:
[1] = test system: methicillin-sensitive Staphylococcus aureus; test: MIC by broth micro-dilution (CLSI), methicillin-sensitive S. aureus; type: cell-based; conditions: Staphylococcus aureus, ATCC 29213 / MSSA, MSSA S. aureus ATCC29213; read-out: MIC
[2] = test system: carbapenem sensitive Pseudomonas aeruginosa; test: MIC by broth micro-dilution (CLSI), carbapenem sensitive P. aeruginosa; type: cell-based; conditions: Pseudomonas aeruginosa, ATCC27853, Meropenem susceptible P. aeruginosa ATCC27853; read-out: MIC
[3] = test system: extended spectrum β lactamase (ESBL) SHV18 producing Klebsiella pneumoniae; test: MIC by broth micro-dilution (CLSI), ESBL SHV18 producing K. pneumoniae; type: cell-based; conditions: Klebsiella pneumoniae, ATCC700603, 22 h, ESBL +ve (SHV-18) K. pneumoniae ATCC700603; read-out: MIC
[4] = test system: carbapenem sensitive Escherichia coli; test: MIC by broth micro-dilution (CLSI), carbapenem sensitive E. coli; type: cell-based; conditions: Escherichia coli, ATCC25922, ESBL −ve E. coli ATCC25922; read-out: MIC
[5] = test system: carbapenemase producing K. pneumoniae; test: MIC by broth micro-dilution (CLSI), carbapenemase producing K. pneumoniae; type: cell-based, Klebsiella pneumoniae; conditions: Klebsiella pneumoniae, ATCCBAA1705, KPC-2 K. pneumoniae ATCC BAA-1705; read-out: MIC

SMILES	MIC [1]	MIC [2]	MIC [3]	MIC [4]	MIC [5]
C[C@@H](NC(=O)C(F)F)[C@H]1C(=O)N2C(C(=O)O)=C(S[C@@H]3CN[C@H](CN4CC[C@H](N)C4)C3)[C@H](C)[C@H]12 [Example 150]	4 µg/mL (≈ 8.2 µM)	64 µg/mL (≈ 131 µM)	64 µg/mL (≈ 131 µM)	4 µg/mL (≈ 8.2 µM)	16 µg/mL (≈ 32.8 µM)
CNCC(=O)NO[C@H]1CCN(C(=O)[C@@H]2C[C@H](SC3=C(C(=O)O)N4C(=O)[C@H]([C@@H](C)NC(=O)C(F)F)[C@H]4[C@H]3C)CN2)C1 [Example 151]	4 µg/mL (≈ 6.8 µM)	32 µg/mL (≈ 54.4 µM)	16 µg/mL (≈ 27.2 µM)	2 µg/mL (≈ 3.4 µM)	8 µg/mL (≈ 13.6 µM)
C[C@@H](NC(=O)C(F)F)[C@H]1C(=O)N2C(C(=O)O)=C(S[C@@H]3CN[C@H](C(=O)N4CC[C@H](NCC(N)=O)C4)C3)[C@H](C)[C@H]12 [Example 153]	8 µg/mL (≈ 14.3 µM)	64 µg/mL (≈ 115 µM)	2 µg/mL (≈ 3.58 µM)	1 µg/mL (≈ 1.79 µM)	8 µg/mL (≈ 14.3 µM)
C[C@@H](NC(=O)C(F)F)[C@H]1C(=O)N2C(C(=O)O)=C(S[C@@H]3CN[C@H](C(=O)N4CC[C@@H](NCC(N)=O)C4)C3)[C@H](C)[C@H]12 [Example 154]	4 µg/mL (≈ 7.16 µM)	64 µg/mL (≈ 115 µM)	2 µg/mL (≈ 3.58 µM)	1 µg/mL (≈ 1.79 µM)	8 µg/mL (≈ 14.3 µM)
CNCC(=O)N[C@@H]1CCN(C(=O)[C@@H]2C[C@H](SC3=C(C(=O)O)N4C(=O)[C@H]([C@@H](C)NC(=O)C(F)F)[C@H]4[C@H]3C)CN2)C1 [Example 155]	2 µg/mL (≈ 3.49 µM)	32 µg/mL (≈ 55.9 µM)	8 µg/mL (≈ 14 µM)	1 µg/mL (≈ 1.75 µM)	8 µg/mL (≈ 14 µM)
C[C@@H](NC(=O)C(F)F)[C@H]1C(=O)N2C(C(=O)O)=C(S[C@@H]3CN[C@H](C(=O)N4CCN(C(=N)N)CC4)C3)[C@H](C)[C@H]12 [Example 157]	2 µg/mL (≈ 3.68 µM)	4 µg/mL (≈ 7.36 µM)	8 µg/mL (≈ 14.7 µM)	1 µg/mL (≈ 1.84 µM)	4 µg/mL (≈ 7.36 µM)
CNCC(=O)N1CCN(C(=O)[C@@H]2C[C@H](SC3=C(C(=O)O)N4C(=O)[C@H]([C@@H](C)NC(=O)C(F)F)[C@H]4[C@H]3C)CN2)CC1 [Example 158]	2 µg/mL (≈ 3.49 µM)	8 µg/mL (≈ 14 µM)	4 µg/mL (≈ 6.99 µM)	1 µg/mL (≈ 1.75 µM)	4 µg/mL (≈ 6.99 µM)
C[C@@H](NC(=O)C(F)F)[C@H]1C(=O)N2C(C(=O)O)=C(S[C@@H]3CN[C@H](C(=O)N4CCN(C(=O)CN)CC4)C3)[C@H](C)[C@H]12 [Example 159]	2 µg/mL (≈ 3.58 µM)	8 µg/mL (≈ 14.3 µM)	4 µg/mL (≈ 7.16 µM)	1 µg/mL (≈ 1.79 µM)	4 µg/mL (≈ 7.16 µM)
C[C@@H](NC(=O)C(F)F)[C@H]1C(=O)N2C(C(=O)O)=C(S[C@@H]3CN[C@H](C(=O)N4CC[C@@H](NC(=O)CN)C4)C3)[C@H](C)[C@H]12 [Example 160]	4 µg/mL (≈ 7.16 µM)	16 µg/mL (≈ 28.6 µM)	8 µg/mL (≈ 14.3 µM)	1 µg/mL (≈ 1.79 µM)	8 µg/mL (≈ 14.3 µM)
C[C@@H](NC(=O)C(F)F)[C@H]1C(=O)N2C(C(=O)O)=C(S[C@@H]3CN[C@H](C(=O)N4CCNC[C@@H]4C)C3)[C@H](C)[C@H]12 [Example 161]	0.5 µg/mL (≈ 0.97 µM)	8 µg/mL (≈ 15.5 µM)	8 µg/mL (≈ 15.5 µM)	0.5 µg/mL (≈ 0.97 µM)	4 µg/mL (≈ 7.76 µM)
C[C@@H](NC(=O)C(F)F)[C@H]1C(=O)N2C(C(=O)O)=C(S[C@@H]3CN[C@H](C(=O)N4CCCNCC4)C3)[C@H](C)[C@H]12 [Example 162]	1 µg/mL (≈ 1.94 µM)	16 µg/mL (≈ 31 µM)	4 µg/mL (≈ 7.76 µM)	0.5 µg/mL (≈ 0.97 µM)	4 µg/mL (≈ 7.76 µM)
CNCCN(C)C(=O)[C@@H]1C[C@H](SC2=C(C(=O)O)N3C(=O)[C@H]([C@@H](C)NC(=O)C(F)F)[C@H]3[C@H]2C)CN1 [Example 163]	1 µg/mL (≈ 1.99 µM)	8 µg/mL (≈ 15.9 µM)	4 µg/mL (≈ 7.94 µM)	1 µg/mL (≈ 1.99 µM)	4 µg/mL (≈ 7.94 µM)
C[C@@H](NC(=O)C(F)F)[C@H]1C(=O)N2C(C(=O)O)=C(S[C@@H]3CN[C@H](C(=O)N4CC[C@@H](ON)C4)C3)[C@H](C)[C@H]12 [Example 164]	1 µg/mL (≈ 1.93 µM)	32 µg/mL (≈ 61.8 µM)	1 µg/mL (≈ 1.93 µM)	0.25 µg/mL (≈ 0.483 µM)	4 µg/mL (≈ 7.73 µM)
C[C@@H](NC(=O)CCN)[C@H]1C(=O)N2C(C(=O)O)=C(S[C@@H]3CN[C@H](C(=O)N(C)C)C3)[C@H](C)[C@H]12 [Example 165]	64 µg/mL (≈ 141 µM)	32 µg/mL (≈ 70.6 µM)	4 µg/mL (≈ 8.82 µM)	2 µg/mL (≈ 4.41 µM)	2 µg/mL (≈ 4.41 µM)
CNCCC(=O)N[C@H](C)[C@H]1C(=O)N2C(C(=O)O)=C(S[C@@H]3CN[C@H](C(=O)N(C)C)C3)[C@H](C)[C@H]12 [Example 166]	64 µg/mL (≈ 137 µM)	32 µg/mL (≈ 68.4 µM)	8 µg/mL (≈ 17.1 µM)	4 µg/mL (≈ 8.55 µM)	8 µg/mL (≈ 17.1 µM)
C[C@H]([C@H]1C(=O)N2C(C(=O)O)=C(SC3CN[C@H](C(=O)N4CC[C@@H](N)C4)C3)[C@H](C)[C@H]12)n1cc(CO)nn1 (some centres unmarked) [Example 167]	2 µg/mL (≈ 3.96 µM)	32 µg/mL (≈ 63.3 µM)	4 µg/mL (≈ 7.91 µM)	4 µg/mL (≈ 7.91 µM)	4 µg/mL (≈ 7.91 µM)
